The target in series [1] is T1, human recombinant ghrelin receptor (GHS-R1a) (Homo sapiens, UniProt Q92847).
T1 construct: host or cells: CHO-K1
Kind of series: hGHS-R1a Ca assay (Fluo-4 calcium assay in CHO-K1 cells). The conditions noted are these: CHO-K1 cells expressing human GHS-R1a; agonist dose response up to 30 μM. Type of series: cell-based. On the procedure: (§1) Chinese hamster ovary (CHO-K1) cells expressing human recombinant ghrelin receptor (GHS-R1a) were purchased from Euroscreen (ES-410-C) and propagated in UltraCHO medium containing glutamine and supplemented with 1% heat inactivated foetal calf serum (FCS), 100 U/ml penicillin, 100 mg/l streptomycin and 0.8 g/l geneticin. Cells were sub-cultured twice a week with a 1:10 dilution. For passaging, cells were washed with 1×DPBS without calcium and magnesium, trypsinised for 10 min with 0.05% Trypsin/EDTA and resuspended in cell culture medium.
Cells were diluted to achieve 1×10^6 cells/ml, seeded in 384-well black clear bottom CellBind plates at 25000 cells/well (25 ul) and incubated overnight at 37° C./5% CO2 Cells were expected to be 85-90% confluent on the day of assay (checked under the microscope) to ensure a high quality assay. Media was manually removed and 40 μl of loading solution containing probenecid and Fluo-4 no wash dye (a calcium indicator, Invitrogen F36206) were added to each well. After 30 min at 37° C. followed by another 30 min at RT, cpds were added to the wells. To generate a dose response up to 30 μM, 10 mM compound stocks in 100% (v/v) DMSO were firstly diluted in 50% (v/v) DMSO. Then, serial dilutions aimed at a full logarithmic dose responses (8 point) were performed in assay buffer [1×HBSS, 20 mM Hepes, 0.1% (w/v) BSA] to give 2.5% (v/v) DMSO and 5× final compound concentrations. The final assay DMSO concentration was 0.5% (v/v). After loading the cells with Fluo-4 containing solution, plates were read on a CellLux instrument (Perkin Elmer). A protocol set up to add 10 μl of 5× compound and to read the plate for 60 sec after adding the compound at 17th sec was used. Fluorescence excitation took place at 494 nm and emission at 516 nm. EC50 values of agonists were calculated by fitting the percent stimulation over background [(Max−Min)/Min] using the nonlinear logistic function of the Prism 5 software (GraphPad, USA).

The target in series [2] is T1, human recombinant ghrelin receptor (GHS-R1a). Put plainly: hGHS-R1a cAMP assay (HTRF cAMP dynamic 2 kit, CHO-hGHS-R1a cells). The class given is cell-based. The conditions noted are these: 60 min incubation, dose response up to 30 μM. Here is the method: as §1
The Homogeneous Time-Resolved Fluorescence (HTRF) cAMP dynamic 2 kit (Cisbio International, France) was used as follows. CHO-hGHS-R1a or CHO-rGHS-R1a cells were seeded in a volume of 25 μl culture media at 10,000 cells/well (400,000 cells/ml) in Greiner white 384-well high volume plates and incubated overnight (18-24 h) at 37° C./5% CO2. Then, media was removed and 6 μl assay buffer [HBSS, 10 mM Hepes, 0.2% (w/v) BSA, 1.7 mM IBMX, (pH7.4)] were added to the wells. To generate a dose response up to 30 μM, 10 mM compound stocks in 100% (v/v) DMSO were firstly diluted in 50% (v/v) DMSO followed by a further dilution into assay buffer. Then, 4 μl of 2.5× compound (dose response as 9 point log serial dilution in assay buffer from 30 μM as maximum concentration) were added to each well achieving a final DMSO assay concentration of 0.8% (v/v). 0.1 μM forskolin was added as positive control. After 30 min (rGHS-R1a cell line) or 60 min (hGHS-R1a cell line) incubation at 37° C./5% CO2, 5 μl of cAMP-d2 and 5 μl of anti-cAMP antibody-cryptate, (both made in lysis buffer), were added to the plate followed by 1 h incubation at RT. During this time, cAMP produced by the cells competed with cAMP-d2 for the anti-cAMP antibody-cryptate molecule. Then, the plate was read on the Pherastar instrument (BMG, Germany) at two different emission wavelengths (620 and 650 nm). Increasing levels of endogenous cAMP produced by cells could be followed by a decrease of FRET fluorescent signal and viceversa. Values represented by a change in arbitrary fluorescence ratios (665/620) were converted into cAMP concentrations by using a standard curve, the reagents for which were supplied with the kit. EC50 values of agonists were calculated using the nonlinear logistic function of the Prism 5 software (GraphPad, USA). Emax were expressed as relative values of the ghrelin response, which was defined as 100%.
In general terms: Cyclic AMP is a second messenger, typically raised through Gs and lowered through Gi signalling.

The nature of series [3]: Aqueous solubility of crystalline L-malate salt forms compared to free base amorphous form. Conditions: crystalline L-malate salt compared to the free base amorphous form. Type of series: physicochemical.

T1 sequence (Q92847 whole entry): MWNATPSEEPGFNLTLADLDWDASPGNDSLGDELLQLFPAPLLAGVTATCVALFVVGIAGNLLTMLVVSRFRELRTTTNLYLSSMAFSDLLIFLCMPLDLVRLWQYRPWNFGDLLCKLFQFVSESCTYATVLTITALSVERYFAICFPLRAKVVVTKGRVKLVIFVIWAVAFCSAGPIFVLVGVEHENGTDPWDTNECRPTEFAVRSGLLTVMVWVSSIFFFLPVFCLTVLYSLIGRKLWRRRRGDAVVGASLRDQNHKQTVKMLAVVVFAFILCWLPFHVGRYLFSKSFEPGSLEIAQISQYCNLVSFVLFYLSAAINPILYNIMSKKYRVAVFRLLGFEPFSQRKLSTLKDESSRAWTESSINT

Usually EC50 stands for the concentration needed to bring the measured effect to its halfway point. Regarding `COc1ccc(COC[C@@H](NC(=O)C(C)(C)N)C(=O)N2CCCC3(C2)C(=O)N(C)CC3c2ccccc2)cc1` (single isomer, unassigned) [Example 6.0(ii), 2-Amino-N-[(R)-1-(4-methoxy-benzyloxymethyl)-2-((4S,5R)-2-methyl-1-oxo-4-phenyl-2,7-diaza-spiro[4.5]dec-7-yl)-2-oxo-ethyl]-2-methyl-propionamide or 2-Amino-N-[(R)-1-(4-methoxy-benzyloxymethyl)-2-(4R,5S)-2-methyl-1-oxo-4-phenyl-2,7-diaza-spiro[4.5]dec-7-yl)-2-oxo-ethyl]-2-methyl-propionamide], the EC50 in series [1] was 0.0005 µM; in series [2], 0.109 µM.

As to `CN1CC(c2ccccc2)C2(CCCN(C(=O)[C@@H](COCc3ccc(F)cc3)NC(=O)C(C)(C)N)C2)C1=O` (single isomer, unassigned) [Example 7.0, 2-Amino-N-[(R)-1-(4-fluoro-benzyloxymethyl)-2-(4S,5R)-2-methyl-1-oxo-4-phenyl-2,7-diaza-spiro[4.5]dec-7-yl)-2-oxo-ethyl]-2-methyl-propionamide or 2-Amino-N-[(R)-1-(4-fluoro-benzyloxymethyl)-2-(4R,5S)-2-methyl-1-oxo-4-phenyl-2,7-diaza-spiro[4.5]dec-7-yl)-2-oxo-ethyl]-2-methyl-propionamide], the concentration giving a half-maximal response (EC50) was determined as 0.00017 µM in series [1] and 0.138 µM in series [2].

For `CN1CC(c2ccccc2)C2(CCCN(C(=O)[C@@H](COCc3ccccc3)NC(=O)C(C)(C)N)CC2)C1=O` (single isomer, unassigned) [Example 9.0(iv)], the EC50 in series [1] amounted to 0.0004 µM; in series [2] it was 0.086 µM.

As to `CN1C[C@@H](c2ccccc2)[C@@]2(CCCN(C(=O)[C@@H](COCc3ccccc3)NC(=O)C(C)(C)N)C2)C1=O.O=C(O)C[C@H](O)C(=O)O` [2-Amino-N-[(R)-1-benzyloxymethyl-2-((4S,5R)-2-methyl-1-oxo-4-phenyl-2,7-diaza-spiro[4.5]dec-7-yl)-2-oxo-ethyl]-2-methyl-propionamide L-malate salt], in series [3], the aqueous solubility result is “increased aqueous solubility”.

Consider `Cc1ccc(C2CN(C)C(=O)C23CCCN(C(=O)[C@@H](COCc2ccccc2)NC(=O)C(C)(C)N)C3)cc1.O=C(O)C[C@H](O)C(=O)O` (stereo partly drawn) [2-amino-N-((2R)-3-(benzyloxy)-1-(2-methyl-1-oxo-4-p-tolyl-2,7-diazaspiro[4.5]decan-7-yl)-1-oxopropan-2-yl)-2-methylpropanamide L-malate salt], for which the aqueous solubility result in series [3] is on record as “increased aqueous solubility”.

Take `CN1C[C@@H](c2ccc(F)cc2)[C@@]2(CCCN(C(=O)[C@@H](COCc3ccccc3)NC(=O)C(C)(C)N)C2)C1=O.O=C(O)C[C@H](O)C(=O)O` [2-amino-N-((2R)-3-(benzyloxy)-1-((4S,5R)-4-(4-fluorophenyl)-2-methyl-1-oxo-2,7-diazaspiro[4.5]decan-7-yl)-1-oxopropan-2-yl)-2-methylpropanamide L-malate salt]: the aqueous solubility entry in series [3] is “increased aqueous solubility”.

For the compound `CN1C[C@@H](c2ccc(F)cc2)[C@@]2(CCCN(C(=O)[C@@H](COCc3ccccc3)NC(=O)C(C)(C)N)C2)C1=O` [Example 1.2, 2-Amino-N-((2R)-3-(benzyloxy)-1-((4S,5R)-4-(4-fluorophenyl)-2-methyl-1-oxo-2,7-diazaspiro[4.5]decan-7-yl)-1-oxopropan-2-yl)-2-methylpropanamide], the EC50 was 0.0001 µM in series [1] and 0.055 µM in series [2].

As to `CCC(N)(CC)C(=O)N[C@H](COCc1ccccc1)C(=O)N1CCC[C@@]2(C1)C(=O)N(C)C[C@H]2c1ccccc1` [Example 1.71, 2-amino-N-((R)-3-(benzyloxy)-1-((4S,5R)-2-methyl-1-oxo-4-phenyl-2,7-diazaspiro[4.5]decan-7-yl)-1-oxopropan-2-yl)-2-ethylbutanamide], the EC50 was found to be 0.0054 µM in series [1] and 1.14 µM in series [2].

`Cc1ccc(COC[C@@H](NC(=O)C(C)(C)N)C(=O)N2CCCC3(C2)C(=O)N(C)CC3c2ccc(F)cc2)cc1` (stereo partly drawn) [Example 1.72, 2-amino-N-((2R)-1-(4-(4-fluorophenyl)-2-methyl-1-oxo-2,7-diazaspiro[4.5]decan-7-yl)-3-((4-methylbenzyl)oxy)-1-oxopropan-2-yl)-2-methylpropanamide]: the EC50 in series [1] is 0.005 µM; in series [2], 2.56 µM.

As for `CN1CC(c2ccccc2)C2(CCCN(C(=O)[C@@H](COCc3ccccc3)NC(=O)C(C)(N)C(F)(F)F)C2)C1=O` (stereo partly drawn) [Example 1.73, 2-amino-N-((2R)-3-(benzyloxy)-1-(2-methyl-1-oxo-4-phenyl-2,7-diazaspiro[4.5]decan-7-yl)-1-oxopropan-2-yl)-3,3,3-trifluoro-2-methylpropanamide], the EC50 in series [1] was 3.32 µM; in series [2], at least 30 µM.

`COc1ccc(C2CN(C)C(=O)C23CCCN(C(=O)[C@@H](COCc2ccccc2)NC(=O)C(C)(C)N)C3)cc1` (stereo partly drawn) [Example 1.74, 2-amino-N-((2R)-3-(benzyloxy)-1-(4-(4-methoxyphenyl)-2-methyl-1-oxo-2,7-diazaspiro[4.5]decan-7-yl)-1-oxopropan-2-yl)-2-methylpropanamide]: the EC50 was found to be 0.0054 µM in series [1] and 5.9 µM in series [2].

Consider `CC(C)(C)CN1CC(c2ccccc2)C2(CCCN(C(=O)[C@@H](COCc3ccccc3)NC(=O)C(C)(C)N)C2)C1=O` (stereo partly drawn) [Example 1.75, 2-amino-N-((2R)-3-(benzyloxy)-1-(2-neopentyl-1-oxo-4-phenyl-2,7-diazaspiro[4.5]decan-7-yl)-1-oxopropan-2-yl)-2-methylpropanamide], for which the figures for the EC50 in series [1] and in series [2] were 0.0036 µM and 0.302 µM, respectively.

Values taken from patent publication US8546416B2, “3-spirocyclic piperidine derivatives as ghrelin receptor agonists” (Novartis AG, priority 2011, dated 2013).
